Data as given in patent publication US11724997B2, “Compounds and compositions for treating conditions associated with APJ receptor activity” (Annapurna Bio, Inc., priority 2018, dated 2023).

These molecules were tested against T1, APJ Receptor (Homo sapiens, UniProt P35414) (assay: APJ cAMP assay: inhibition of forskolin-stimulated cAMP, enzyme fragment complementation, in CHO-K1 cells stably expressing the APJ Receptor). Conditions: CHO-K1 cell line (DiscoverX) stably expressing APJ Receptor; EC80 forskolin; 30 minutes at 37° C.; read-out: APJ cAMP EC50 Potency range.
T1 sequence (P35414 1-380): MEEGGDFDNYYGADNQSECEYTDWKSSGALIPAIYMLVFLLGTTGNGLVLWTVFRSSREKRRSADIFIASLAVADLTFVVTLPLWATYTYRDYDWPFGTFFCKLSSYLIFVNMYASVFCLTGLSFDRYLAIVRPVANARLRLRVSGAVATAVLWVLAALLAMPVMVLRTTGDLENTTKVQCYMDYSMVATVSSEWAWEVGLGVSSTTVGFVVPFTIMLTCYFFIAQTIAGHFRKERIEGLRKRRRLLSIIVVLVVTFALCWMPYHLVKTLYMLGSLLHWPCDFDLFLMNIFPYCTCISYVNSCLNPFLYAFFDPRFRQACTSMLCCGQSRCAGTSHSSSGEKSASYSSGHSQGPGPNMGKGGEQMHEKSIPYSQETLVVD
Format: cell-based
Description: Activation of APJ receptor is known to inhibit forskolin-stimulated cyclic AMP (cAMP) production in cells in a pertussis toxin-sensitive manner which indicates primary coupling to the GαI subunit of the G protein heterotrimeric complex. In addition to signaling through G protein and inhibition of cAMP, APJ receptor activation also results in β-arrestin recruitment, receptor internalization and activation of extracellular-regulated kinases (ERKs).
In order to optimize functional activity directed toward Gi coupling we utilized a CHO-K1 cell line developed by DiscoverX stably expressing the APJ Receptor. Cells expressing APJR receptor were plated in a 384-well microtiter plates and incubated overnight at 37° C. with 5% CO2 to allow the cells to attach and grow. Media was then aspirated from the cells and replaced with 15 uL 2:1 Hanks Balanced Salt Solution (HBSS)/10 mM Hepes. cAMP XS+ Ab reagent. Five microliters (5 uL) of previously generated compound sample stocks at 4× final concentration in assay buffer containing 4×EC80 forskolin were then added to the cells and allowed to incubate at 37° C. for 30 minutes.
After incubation the assay signal was generated using a technology termed enzyme fragment complementation (EFC). In EFC the enzyme B-galactosidase is split into two complementary portions (EA and ED). The fragment ED is fused to cAMP and in the assay format competes with endogenous cAMP for binding to a cAMP specific antibody. Activated B-Gal is formed when exogenous EA fragment binds to free ED-cAMP (not bound to cAMP specific antibody). Activated enzyme levels are detected through conversion of B-gal chemiluminescent substrate which generates a detectable luminescence signal and read on standard microtiter plate.
The methodology for detection of cAMP using EFC requires incubation with 20 uL of cAMP XS+ ED/CL lysis cocktail for one hour followed by incubation with 20 uL cAMP XS+ EA reagent for three hours at room temperature. Microplates were read following signal generation with a PerkinElmer Envision instrument utilizing chemiluminescent signal detection.
Compound activity was analyzed using CBIS data analysis suite (ChemInnovation, CA).
Percentage activity was calculated using the following formula: % Activity=[…]×(1−(mean RLU of test sample−mean RLU of Max control)/(mean RLU of vehicle control−mean RLU of Max control))
The biological activity of the exemplified compounds of this invention determined by the assay described above is shown in Table 1. The APJ cAMP EC50 potency ranges are as follows: A: EC50<1 nM; B: 1≤EC50<100 nM; and C: 100≤EC50<10,000 nM.

EC50	Structure (SMILES)
< 1 nM	COc1cccc(-c2nnc(C(=O)NS(=O)(=O)Cc3ncc(Cl)cn3)n2-c2c(OC)cccc2OC)n1 [Example 29, N-(((5-chloropyrimidin-2-yl)methyl)sulfonyl)-4-(2,6-dimethoxyphenyl)-5-(6-methoxypyridin-2-yl)-4H-1,2,4-triazole-3-carboxamide]
< 1 nM	CCOc1cccc(-c2nnc(C(=O)NS(=O)(=O)Cc3ncc(C)cn3)n2-c2c(OC)cccc2OC)n1 [Example 38, 4-(2,6-Dimethoxyphenyl)-5-(6-ethoxypyridin-2-yl)-N-(((5-methylpyrimidin-2-yl)methyl)sulfonyl)-4H-1,2,4-triazole-3-carboxamide]
< 1 nM	CCOc1cccc(-c2nnc(C(=O)NS(=O)(=O)Cc3ncn(C)n3)n2-c2c(OC)cccc2OC)n1 [Example 54, 4-(2,6-Dimethoxyphenyl)-5-(6-ethoxypyridin-2-yl)-N-(((1-methyl-1H-1,2,4-triazol-3-yl)methyl)sulfonyl)-4H-1,2,4-triazole-3-carboxamide]
< 1 nM	CCOc1cccc(-c2nnc(C(=O)NS(=O)(=O)Cc3cccnc3)n2-c2c(OC)cccc2OC)n1 [Example 56, 4-(2,6-Dimethoxyphenyl)-5-(6-ethoxypyridin-2-yl)-N-((pyridin-3-ylmethyl)sulfonyl)-4H-1,2,4-triazole-3-carboxamide]
1 to 100 nM	COc1cccc(-c2nnc(C(=O)NS(=O)(=O)Cc3cncnc3)n2-c2c(OC)cccc2OC)n1 [Example 36, 4-(2,6-Dimethoxyphenyl)-5-(6-methoxypyridin-2-yl)-N-((pyrimidin-5-ylmethyl)sulfonyl)-4H-1,2,4-triazole-3-carboxamide]
< 1 nM	CCOc1cccc(-c2nnc(C(=O)NS(=O)(=O)[C@H]3CCc4ccccc4C3)n2-c2c(OC)cccc2OC)n1 (single isomer, unassigned) [Example 47]
100 to 10000 nM	COc1cccc(OC)c1-n1c(C(=O)NS(=O)(=O)Cc2ncccn2)nnc1-c1ccc(F)c(OC)n1 [Example 23, 4-(2,6-Dimethoxyphenyl)-5-(5-fluoro-6-methoxypyridin-2-yl)-N-((pyrimidin-2-ylmethyl)sulfonyl)-4H-1,2,4-triazole-3-carboxamide]
100 to 10000 nM	COc1cccc(OC)c1-n1c(C(=O)NS(=O)(=O)Cc2ncc(C)cn2)nnc1-c1ccc(C)cn1 [Example 24, 4-(2,6-Dimethoxyphenyl)-5-(5-methylpyridin-2-yl)-N-(((5-methylpyrimidin-2-yl)methyl)sulfonyl)-4H-1,2,4-triazole-3-carboxamide]
< 1 nM	CCOc1cccc(-c2nnc(C(=O)NS(=O)(=O)Cc3ccccc3)n2-c2c(OC)cccc2OC)n1 [Example 2, N-(benzylsulfonyl)-4-(2,6-dimethoxyphenyl)-5-(6-ethoxypyridin-2-yl)-4H-1,2,4-triazole-3-carboxamide]
< 1 nM	COc1cccc(OC)c1-n1c(C(=O)NS(=O)(=O)Cc2ccccc2)nnc1-c1cccc(OC2CC2)n1 [Example 19, N-(benzylsulfonyl)-5-(6-cyclopropoxypyridin-2-yl)-4-(2,6-dimethoxyphenyl)-4H-1,2,4-triazole-3-carboxamide]
100 to 10000 nM	COc1cccc(OC)c1-n1c(C(=O)NS(=O)(=O)Cc2ccccc2)nnc1-c1cc(C2CC2)no1 [Example 11, N-(benzylsulfonyl)-5-(3-cyclopropylisoxazol-5-yl)-4-(2,6-dimethoxyphenyl)-4H-1,2,4-triazole-3-carboxamide]
< 1 nM	CCOc1cccc(-c2nnc(C(=O)NS(=O)(=O)Cc3ncc(OC)cn3)n2-c2c(OC)cccc2OC)n1 [Example 44, 4-(2,6-Dimethoxyphenyl)-5-(6-ethoxypyridin-2-yl)-N-(((5-methoxypyrimidin-2-yl)methyl)sulfonyl)-4H-1,2,4-triazole-3-carboxamide]
< 1 nM	CCOc1cccc(-c2nnc(C(=O)NS(=O)(=O)C[C@@H](C)c3ccccc3)n2-c2c(OC)cccc2OC)n1 (single isomer, unassigned) [Example 45]
1 to 100 nM	CCOc1cccc(-c2nnc(C(=O)N(C)S(=O)(=O)Cc3ccccc3)n2-c2c(OC)cccc2OC)n1 [Example 8, N-(benzylsulfonyl)-4-(2,6-dimethoxyphenyl)-5-(6-ethoxypyridin-2-yl)-N-methyl-4H-1,2,4-triazole-3-carboxamide]
1 to 100 nM	COc1cccc(-c2nnc(C(=O)NS(=O)(=O)Cc3ccccc3)n2-c2c(OC)cccc2C(F)(F)F)n1 [Example 62, N-(benzylsulfonyl)-4-(2-methoxy-6-(trifluoromethyl)phenyl)-5-(6-methoxypyridin-2-yl)-4H-1,2,4-triazole-3-carboxamide]
< 1 nM	CCOc1cccc(-c2nnc(C(=O)NS(=O)(=O)CCc3cccnc3)n2-c2c(OC)cccc2OC)n1 [Example 50, 4-(2,6-Dimethoxyphenyl)-5-(6-ethoxypyridin-2-yl)-N-((2-(pyridin-3-yl)ethyl)sulfonyl)-4H-1,2,4-triazole-3-carboxamide]
< 1 nM	COc1cccc(OC)c1-n1c(C(=O)NS(=O)(=O)Cc2ncccn2)nnc1-c1cccc(OC2CC2)n1 [Example 20, 5-(6-Cyclopropoxypyridin-2-yl)-4-(2,6-dimethoxyphenyl)-N-((pyrimidin-2-ylmethyl)sulfonyl)-4H-1,2,4-triazole-3-carboxamide]
< 1 nM	COc1cccc(-c2nnc(C(=O)NS(=O)(=O)Cc3ccccn3)n2-c2c(OC)cccc2OC)n1 [Example 28, 4-(2,6-Dimethoxyphenyl)-5-(6-methoxypyridin-2-yl)-N-((pyridin-2-ylmethyl)sulfonyl)-4H-1,2,4-triazole-3-carboxamide]
< 1 nM	COc1cccc(-c2nnc(C(=O)NS(=O)(=O)Cc3ncc(C)cn3)n2-c2c(OC)cccc2OC)n1 [Example 27, 4-(2,6-Dimethoxyphenyl)-5-(6-methoxypyridin-2-yl)-N-(((5-methylpyrimidin-2-yl)methyl)sulfonyl)-4H-1,2,4-triazole-3-carboxamide]
< 1 nM	CCOc1cccc(-c2nnc(C(=O)NS(=O)(=O)CCc3ccccc3)n2-c2c(OC)cccc2OC)n1 [Example 3, 4-(2,6-dimethoxyphenyl)-5-(6-ethoxypyridin-2-yl)-N-(phenethylsulfonyl)-4H-1,2,4-triazole-3-carboxamide]
< 1 nM	COc1cccc(-c2nnc(C(=O)NS(=O)(=O)Cc3ncccn3)n2-c2c(OC)cccc2OC)n1 [Example 26, 4-(2,6-dimethoxyphenyl)-5-(6-methoxypyridin-2-yl)-N-((pyrimidin-2-ylmethyl)sulfonyl)-4H-1,2,4-triazole-3-carboxamide]
< 1 nM	COc1cccc(-c2nnc(C(=O)NS(=O)(=O)CC3CCCCC3)n2-c2c(OC)cccc2OC)n1 [Example 34, N-((cyclohexylmethyl)sulfonyl)-4-(2,6-dimethoxyphenyl)-5-(6-methoxypyridin-2-yl)-4H-1,2,4-triazole-3-carboxamide]
100 to 10000 nM	COc1ccc(Cn2nc(C3CC3)nc2-c2nnc(C(=O)NS(=O)(=O)Cc3ccccc3)n2-c2c(OC)cccc2OC)cc1 [Example 64, N-(benzylsulfonyl)-5-cyclopropyl-4′-(2,6-dimethoxyphenyl)-2-(4-methoxybenzyl)-2H,4′H-[3,3′-bi(1,2,4-triazole)]-5′-carboxamide]
< 1 nM	COc1cccc(OC)c1-n1c(C(=O)NS(=O)(=O)Cc2ncccn2)nnc1-c1ccc(C)o1 [Example 17, 4-(2,6-Dimethoxyphenyl)-5-(5-methylfuran-2-yl)-N-((pyrimidin-2-ylmethyl)sulfonyl)-4H-1,2,4-triazole-3-carboxamide]
< 1 nM	CCOc1cccc(-c2nnc(C(=O)NS(=O)(=O)[C@H](C)c3ccccc3)n2-c2c(OC)cccc2OC)n1 (single isomer, unassigned) [Example 40]
1 to 100 nM	COc1cccc(-c2nnc(C(=O)NS(=O)(=O)Cc3ccccc3)n2-c2c(OC)cccc2OC)n1 [Example 13, N-(benzylsulfonyl)-4-(2,6-dimethoxyphenyl)-5-(6-methoxypyridin-2-yl)-4H-1,2,4-triazole-3-carboxamide]
